Source: patent publication US20250333405A1, “ANTAGONISTS OF GPR39 PROTEIN” (VASOCARDEA, INC., priority 2024, published 2025)

Target: T1, human GPR39 receptor (Homo sapiens, UniProt O43194)
T1 construct: PC3 Cells, Expressing the Endogenous Human GPR39 Receptor; endogenous in cells; host or cells: PC3 (human prostate adenocarcinoma) cells
T1 sequence (O43194 1-453): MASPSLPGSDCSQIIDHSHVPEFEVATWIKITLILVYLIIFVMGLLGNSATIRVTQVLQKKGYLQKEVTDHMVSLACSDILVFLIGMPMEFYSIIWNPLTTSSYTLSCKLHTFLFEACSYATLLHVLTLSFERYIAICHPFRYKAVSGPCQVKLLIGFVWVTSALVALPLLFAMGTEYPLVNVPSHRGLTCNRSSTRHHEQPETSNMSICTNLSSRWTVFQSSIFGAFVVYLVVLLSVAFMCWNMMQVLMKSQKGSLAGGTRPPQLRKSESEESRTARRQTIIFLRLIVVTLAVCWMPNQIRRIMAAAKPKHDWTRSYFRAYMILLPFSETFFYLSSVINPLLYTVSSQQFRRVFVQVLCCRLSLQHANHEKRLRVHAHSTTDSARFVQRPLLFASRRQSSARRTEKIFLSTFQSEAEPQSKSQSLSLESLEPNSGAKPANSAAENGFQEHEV
Assay: Intracellular calcium response (FLIPR, Calcium-6) in PC3 cells, antagonism of agonist C3 (TC-G 1008) at EC90
Assay type: cell-based
Settings: functional pKi (-Log10Ki) by modified Cheng-Prusoff from IC50; PC3 cells endogenously expressing human GPR39; 30 μM ZnCl2; agonist C3 (TC-G 1008) at EC90 1.5 μM; read-out: fpKi activity
Method: Measurement of Intracellular Calcium Response in PC3 Cells, Expressing the Endogenous Human GPR39 Receptor
Human prostate adenocarcinoma (PC3) cells endogenously expressing human GPR39 receptor were seeded into black walls clear-base 384-well plates at a density of 7,500 cells per well in DMEM (Low Glucose) supplemented with 10% heat-inactivated foetal bovine serum and 1% of Pen/Strep and grown overnight at 37° C., 5% CO2. After washing with assay buffer (20 mM HEPES, 137 mM NaCl, 5.4 mM KCl, 10 mM glucose, 0.8 mM MgSO4, 1.3 mM CaCl2), 0.3 mM Na2HPO4, 0.4 mM KH2PO4 4.2 mM NaHCO3, pH 7.4), cells were incubated with Calcium-6 probe (Molecular Devices) at 37° C. for 2 h and then equilibrated at RT for 30 minutes on metal block. The fluorescence was measured in real time by Fluorometric Imaging Plate Reader (FLIPR TETRA, Molecular Devices) (excitation wavelength at 470-495 nm, emission wavelength at 515-575 nm). Compounds of invention were serially diluted in neat DMSO at 1000 fold concentrations and plated into 384-well plates and then 200-fold diluted in assay buffer containing 150 μM ZnCl2 (30 μM final concentration) and 1.1% DMSO (0.32% final concentration). A dual addition FLIPR protocol was used which included a first addition of compounds 200-fold diluted in Assay Buffer containing 150 μM ZnCl2 and 1.1% DMSO and then after 10 minutes a second addition of a submaximal concentration of the hGPR39 receptor agonist, C3 (Tocris, TC-G 1008) at EC90 (concentration producing 90% of the maximal response) value of 1.5 μM. Fluorescence was monitored throughout the run assay. The peak of Ca2+ stimulation (baseline subtracted) was expressed as percentage of the maximal inhibition of the EC90 C3 response and was plotted versus the concentration of test compound. Curve fitting and IC50 estimations are carried out using a four-parameter logistic model using XLfit Software. […] An fpKi less than 5.2 is reported as “+/−”. An fpKi ranging from 5.2 to 5.9 is reported as “+”. An fpKi from 6.0 to 6.5 is reported as “++”. An fpKi from 6.6 to 7.2 is reported as “+++”. An fpKi equal to or greater than 7.3 is reported as “++++”.

SMILES | Ki
O=C(Nc1ccc(C(=O)N2C3CCC2COC3)c(N2CCCC2)c1)C1CC1 [Example 7, N-[4-(3-oxa-8-azabicyclo[3.2.1]octane-8-carbonyl)-3-pyrrolidin-1-ylphenyl]cyclopropanecarboxamide] | 1260 to 6310 nM
O=C(Nc1ccc(C(=O)N2CC3CC(C2)O3)c(N2CCCC2)c1)C1CC1 [Example 8, N-[4-(6-oxa-3-azabicyclo[3.1.1]heptane-3-carbonyl)-3-pyrrolidin-1-ylphenyl]cyclopropanecarboxamide] | 1260 to 6310 nM
O=C(Nc1ccc(C(=O)N2CC3CC(C3)C2)c(N2CCCC2)c1)C1CC1 [Example 9, N-[4-(3-azabicyclo[3.1.1]heptane-3-carbonyl)-3-pyrrolidin-1-ylphenyl]cyclopropanecarboxamide] | 316 to 1000 nM
Cc1nnc(Nc2ccc(C(=O)N3CCN(C)CC3c3ccccc3)c(N3CCCC3)c2)s1 (stereo not shown) [Example 20, (4-methyl-2-phenylpiperazin-1-yl)-[4-[(5-methyl-1,3,4-thiadiazol-2-yl)amino]-2-pyrrolidin-1-ylphenyl]methanone] | 1260 to 6310 nM
CN1CCN(C(=O)c2ccc(-c3cn[nH]c3)cc2N2CCCC2)C(c2ccccc2)C1 (stereo not shown) [Example 21, (4-methyl-2-phenylpiperazin-1-yl)-[4-(1H-pyrazol-4-yl)-2-pyrrolidin-1-ylphenyl]methanone] | > 6310 nM
Cn1ccc(-c2cc(NC(=O)C3CC3)ccc2C(=O)N2CCC(F)(F)CC2)n1 [Example 22, N-[4-(4,4-difluoropiperidine-1-carbonyl)-3-(1-methylpyrazol-3-yl)phenyl]cyclopropanecarboxamide] | 63.1 to 251 nM
CCCN1CCN(C(=O)c2ccc(NC(=O)C3CC3)cc2-c2ccn(C(C)C)n2)CC1 [Example 24, N-[3-(1-propan-2-ylpyrazol-3-yl)-4-(4-propylpiperazine-1-carbonyl)phenyl]cyclopropanecarboxamide] | ≤ 50.1 nM
O=C(Nc1ccc(C(=O)N2CCS(=O)(=O)CC2)c(-c2ccc(C(F)(F)F)s2)c1)C1CC1 [Example 29, N-[4-(1,1-dioxo-1,4-thiazinane-4-carbonyl)-3-[5-(trifluoromethyl)thiophen-2-yl]phenyl]cyclopropanecarboxamide] | 316 to 1000 nM
O=C(Nc1ccc(C(=O)N2CCS(=O)(=O)CC2)c(-c2cccc(C(F)(F)F)n2)c1)C1CC1 [Example 37, N-[4-(1,1-dioxo-1,4-thiazinane-4-carbonyl)-3-[6-(trifluoromethyl)pyridin-2-yl]phenyl]cyclopropanecarboxamide] | ≤ 50.1 nM
COC1(C)CCN(C(=O)c2ccc(-c3nnc(C)[nH]3)cc2-c2ccn(C(C)C)n2)CC1 [Example 39, [2-(1-isopropylpyrazol-3-yl)-4-(5-methyl-4H-1,2,4-triazol-3-yl)phenyl]-(4-methoxy-4-methyl-1-piperidyl)methanone] | ≤ 50.1 nM
Cc1nnc(-c2ccc(C(=O)N3CCC4(CCO4)CC3)c(-c3ccn(C(C)C)n3)c2)[nH]1 [Example 41, [2-(1-isopropylpyrazol-3-yl)-4-(5-methyl-4H-1,2,4-triazol-3-yl)phenyl]-(1-oxa-7-azaspiro[3.5]nonan-7-yl)methanone] | ≤ 50.1 nM
CCOC1CCN(C(=O)c2ccc(-c3nnc(C)[nH]3)cc2-c2ccn(C(C)C)n2)CC1 [Example 42, (4-ethoxy-1-piperidyl)-[2-(1-isopropylpyrazol-3-yl)-4-(5-methyl-4H-1,2,4-triazol-3-yl)phenyl]methanone] | ≤ 50.1 nM
CCn1nccc1-c1cc(-c2nnc(C)[nH]2)ccc1C(=O)N1CCC(F)(F)CC1 [Example 44, (4,4-difluoropiperidin-1-yl)-[2-(2-ethylpyrazol-3-yl)-4-(5-methyl-4H-1,2,4-triazol-3-yl)phenyl]methanone] | 1260 to 6310 nM
Cc1nnc(-c2ccc(C(=O)N3CCC(F)(F)CC3)c(-c3ccn(C)n3)c2)[nH]1 [Example 46, (4,4-difluoropiperidin-1-yl)-[2-(1-methylpyrazol-3-yl)-4-(5-methyl-4H-1,2,4-triazol-3-yl)phenyl]methanone] | 63.1 to 251 nM

Second part, the compound after the results:

Ki | SMILES
> 6310 nM | CN1CCN(C(=O)c2ccc(Nc3nc4ccccn4n3)cc2N2CCCC2)C(c2ccccc2)C1 (stereo not shown) [Example 19, (4-methyl-2-phenylpiperazin-1-yl)-[2-pyrrolidin-1-yl-4-([1,2,4]triazolo[1,5-a]pyridin-2-ylamino)phenyl]methanone]
≤ 50.1 nM | CC(C)n1ccc(-c2cc(NC(=O)C3CC3)ccc2C(=O)N2CCC(F)(F)CC2)n1 [Example 23, N-[4-(4,4-difluoropiperidine-1-carbonyl)-3-(1-propan-2-ylpyrazol-3-yl)phenyl]cyclopropanecarboxamide]
316 to 1000 nM | Cc1ccc(-c2cc(NC(=O)C3CC3)ccc2C(=O)N2CCS(=O)(=O)CC2)s1 [Example 25, N-[4-(1,1-dioxo-1,4-thiazinane-4-carbonyl)-3-(5-methylthiophen-2-yl)phenyl]cyclopropanecarboxamide]
1260 to 6310 nM | N#Cc1ccc(-c2cc(NC(=O)C3CC3)ccc2C(=O)N2CCS(=O)(=O)CC2)s1 [Example 26, N-[3-(5-cyanothiophen-2-yl)-4-(1,1-dioxo-1,4-thiazinane-4-carbonyl)phenyl]cyclopropanecarboxamide]
1260 to 6310 nM | O=C(Nc1ccc(C(=O)N2CCS(=O)(=O)CC2)c(-c2cnc(C(F)(F)F)s2)c1)C1CC1 [Example 27, N-[4-(1,1-dioxo-1,4-thiazinane-4-carbonyl)-3-[2-(trifluoromethyl)-1,3-thiazol-5-yl]phenyl]cyclopropanecarboxamide]
≤ 50.1 nM | CC(C)n1ccc(-c2cc(NC(=O)C3CC3)ccc2C(=O)N2CCS(=O)(=O)CC2)n1 [Example 28, N-[4-(1,1-dioxo-1,4-thiazinane-4-carbonyl)-3-(1-propan-2-ylpyrazol-3-yl)phenyl]cyclopropanecarboxamide]
≤ 50.1 nM | O=C(Nc1ccc(C(=O)N2CCC3(CC2)COC3)c(-c2cccc(C(F)(F)F)n2)c1)C1CC1 [Example 38, N-[4-(2-oxa-7-azaspiro[3.5]nonane-7-carbonyl)-3-[6-(trifluoromethyl)pyridin-2-yl]phenyl]cyclopropanecarboxamide]
63.1 to 251 nM | Cc1nnc(-c2ccc(C(=O)N3CCC(C(C)(C)C)CC3)c(-c3ccn(C(C)C)n3)c2)[nH]1 [Example 40, (4-tert-butyl-1-piperidyl)-[2-(1-isopropylpyrazol-3-yl)-4-(5-methyl-4H-1,2,4-triazol-3-yl)phenyl]methanone]
≤ 50.1 nM | Cc1nnc(-c2ccc(C(=O)N3CCC(C)(F)CC3)c(-c3ccn(C(C)C)n3)c2)[nH]1 [Example 43, (4-fluoro-4-methylpiperidin-1-yl)-[4-(5-methyl-4H-1,2,4-triazol-3-yl)-2-(1-propan-2-ylpyrazol-3-yl)phenyl]methanone]
≤ 50.1 nM | Cc1nnc(-c2ccc(C(=O)N3CCC(C(F)(F)F)CC3)c(-c3ccn(CC(C)C)n3)c2)[nH]1 [Example 45, [2-[1-(2-methylpropyl)pyrazol-3-yl]-4-(5-methyl-4H-1,2,4-triazol-3-yl)phenyl]-[4-(trifluoromethyl)piperidin-1-yl]methanone]
≤ 50.1 nM | Cc1nnc(-c2ccc(C(=O)N3CCC(C(F)(F)F)CC3)c(-c3ccn(C4CCC4)n3)c2)[nH]1 [Example 47, [2-(1-cyclobutylpyrazol-3-yl)-4-(5-methyl-4H-1,2,4-triazol-3-yl)phenyl]-[4-(trifluoromethyl)piperidin-1-yl]methanone]
